Tested on: barnyardgrass (Ec)
Assay: Test Example 1: herbicidal effects by paddy field soil treatment;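 also: grade of growth control; 5 = at least 90%; 4 = 70 to 90%; 3 = 50 to 70%; 2 = 30 to 50%; 1 = 10 to 30%; 0 = under 10%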
Format: in vivo
Conditions: 100 g of the active ingredient per 10 ares, 21st day after the application, index 0-5 of Table 47
Outline: (§1)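 Flooded paddy-soil pots (3 cm water) sown after puddling/leveling; treatment 100 g a.i./10 ares; greenhouse culture; herbicidal effect rated visually on a scoring scale at 21 d post-application.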

Row | SMILES | Herbicidal effects Ec
1 | C=CCn1c(=O)sc2cc(F)c(-c3ccc(C(F)(F)F)n(C)c3=O)cc21 [Compound 3-5] | 5

Tested on: bulrush (Sc)
Assay: as above
Format: in vivo
Conditions: 100 g of the active ingredient per 10 ares, 21st day after the application, index 0-5 of Table 47
Outline: as §1

Row | SMILES | Herbicidal effects Sc
2 | C=CCn1c(=O)sc2cc(F)c(-c3ccc(C(F)(F)F)n(C)c3=O)cc21 [Compound 3-5] | 5

Tested on: monochoria (Mo)
Assay: as above
Format: in vivo
Conditions: 100 g of the active ingredient per 10 ares, 21st day after the application, index 0-5 of Table 47
Outline: as §1

Row | SMILES | Herbicidal effects Mo
3 | C=CCn1c(=O)sc2cc(F)c(-c3ccc(C(F)(F)F)n(C)c3=O)cc21 [Compound 3-5] | 5

Tested on: Digitaria ciliaris (Di)
Assay: Test Example 2: herbicidal effects by upland field soil treatment;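 also: grade of growth control; 5 = at least 90%; 4 = 70 to 90%; 3 = 50 to 70%; 2 = 30 to 50%; 1 = 10 to 30%; 0 = under 10%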
Format: in vivo
Conditions: 100 g of the active ingredient per 10 ares, evaluated on the 21st day after application
From the text: (§2) (Test on Herbicidal Effects by Upland Field Soil Treatment)

Row | SMILES | Herbicidal effects Di
4 | C=CCn1c(=O)sc2cc(F)c(-c3ccc(C(F)(F)F)n(C)c3=O)cc21 [Compound 3-5] | 5

Tested on: barnyardgrass (Ec)
Assay: as above
Format: in vivo
Conditions: 100 g of the active ingredient per 10 ares, evaluated on the 21st day after application
From the text: as §2

Row | SMILES | Herbicidal effects Ec
5 | C=CCn1c(=O)sc2cc(F)c(-c3ccc(C(F)(F)F)n(C)c3=O)cc21 [Compound 3-5] | 5

Tested on: common lambsquarters (Ch)
Assay: as above
Format: in vivo
Conditions: 100 g of the active ingredient per 10 ares, evaluated on the 21st day after application
From the text: as §2

Row | SMILES | Herbicidal effects Ch
6 | C=CCn1c(=O)sc2cc(F)c(-c3ccc(C(F)(F)F)n(C)c3=O)cc21 [Compound 3-5] | 5

Tested on: pale smartweed (Po)
Assay: as above
Format: in vivo
Conditions: 100 g of the active ingredient per 10 ares, evaluated on the 21st day after application
From the text: as §2

Row | SMILES | Herbicidal effects Po
7 | C=CCn1c(=O)sc2cc(F)c(-c3ccc(C(F)(F)F)n(C)c3=O)cc21 [Compound 3-5] | 5

Tested on: rice flatsedge (Ci)
Assay: as above
Format: in vivo
Conditions: 100 g of the active ingredient per 10 ares, evaluated on the 21st day after application
From the text: as §2

Row | SMILES | Herbicidal effects Ci
8 | C=CCn1c(=O)sc2cc(F)c(-c3ccc(C(F)(F)F)n(C)c3=O)cc21 [Compound 3-5] | 5

Tested on: slender amaranth (Am)
Assay: as above
Format: in vivo
Conditions: 100 g of the active ingredient per 10 ares, evaluated on the 21st day after application
From the text: as §2

Row | SMILES | Herbicidal effects Am
9 | C=CCn1c(=O)sc2cc(F)c(-c3ccc(C(F)(F)F)n(C)c3=O)cc21 [Compound 3-5] | 5

Tested on: Diaitaria ciliaris (Di)
Assay: Test Example 3: herbicidal effects by upland field foliage treatment
Format: in vivo
Set-up: scale not given here
Conditions: 100 g active ingredient per 10 ares, evaluated 14th day after treatment
Outline: (§3)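 Post-emergence upland foliage test. Seedlings grown 2 weeks under glass in pots (120 cm^2) of sand, seed topped with soil; treated on the foliage, kept in greenhouse, then assessed at day 14 using rating standards.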

Row | SMILES | Herbicidal effects Di
10 | C=CCn1c(=O)sc2cc(F)c(-c3ccc(C(F)(F)F)n(C)c3=O)cc21 [Compound 3-5] | 5

Tested on: barnyardgrass (Ec)
Assay: as above
Format: in vivo
Set-up: scale not given here
Conditions: 100 g active ingredient per 10 ares, evaluated 14th day after treatment
Outline: as §3

Row | SMILES | Herbicidal effects Ec
11 | C=CCn1c(=O)sc2cc(F)c(-c3ccc(C(F)(F)F)n(C)c3=O)cc21 [Compound 3-5] | 5

Tested on: common lambsquarters (Ch)
Assay: as above
Format: in vivo
Set-up: scale not given here
Conditions: 100 g active ingredient per 10 ares, evaluated 14th day after treatment
Outline: as §3

Row | SMILES | Herbicidal effects Ch
12 | C=CCn1c(=O)sc2cc(F)c(-c3ccc(C(F)(F)F)n(C)c3=O)cc21 [Compound 3-5] | 5

Tested on: pale smartweed (Po)
Assay: as above
Format: in vivo
Set-up: scale not given here
Conditions: 100 g active ingredient per 10 ares, evaluated 14th day after treatment
Outline: as §3

Row | SMILES | Herbicidal effects Po
13 | C=CCn1c(=O)sc2cc(F)c(-c3ccc(C(F)(F)F)n(C)c3=O)cc21 [Compound 3-5] | 5

Tested on: rice flatsedge (Ci)
Assay: as above
Format: in vivo
Set-up: scale not given here
Conditions: 100 g active ingredient per 10 ares, evaluated 14th day after treatment
Outline: as §3

Row | SMILES | Herbicidal effects Ci
14 | C=CCn1c(=O)sc2cc(F)c(-c3ccc(C(F)(F)F)n(C)c3=O)cc21 [Compound 3-5] | 5

Tested on: slender amaranth (Am)
Assay: as above
Format: in vivo
Set-up: scale not given here
Conditions: 100 g active ingredient per 10 ares, evaluated 14th day after treatment
Outline: as §3

Row | SMILES | Herbicidal effects Am
15 | C=CCn1c(=O)sc2cc(F)c(-c3ccc(C(F)(F)F)n(C)c3=O)cc21 [Compound 3-5] | 5

Tested on: wheat (Tr)
Assay: Test Example 9: crop plant selectivity by upland field foliage treatment (wheat), phytotoxicity;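 also: grade of crop injury; 5 = at least 90%; 4 = 70 to 90%; 3 = 50 to 70%; 2 = 30 to 50%; 1 = 10 to 30%; 0 = under 10%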
Conditions: dose 1.6 g ai/10a, 14th day after treatment
Outline: (§4)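 Wheat and weeds sown in sand-filled pots, grown 2 weeks in a greenhouse, then foliage-treated. Herbicidal effect and crop phytotoxicity were scored 14 days after treatment against a rating scale.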

Row | SMILES | Phytotoxicity Tr
16 | C=CCn1c(=O)sc2cc(F)c(-c3ccc(C(F)(F)F)n(C)c3=O)cc21 [Compound 3-5] | 1

Tested on: China jute (Ab)
Assay: Test Example 9: crop plant selectivity by upland field foliage treatment (wheat), herbicidal effects
Format: in vivo
Set-up: scale not given here
Conditions: dose 1.6 g ai/10a, 14th day after treatment
Outline: as §4

Row | SMILES | Herbicidal effects Ab
17 | C=CCn1c(=O)sc2cc(F)c(-c3ccc(C(F)(F)F)n(C)c3=O)cc21 [Compound 3-5] | 5

Tested on: common lambsquarters (Ch)
Assay: as above
Format: in vivo
Set-up: scale not given here
Conditions: dose 1.6 g ai/10a, 14th day after treatment
Outline: as §4

Row | SMILES | Herbicidal effects Ch
18 | C=CCn1c(=O)sc2cc(F)c(-c3ccc(C(F)(F)F)n(C)c3=O)cc21 [Compound 3-5] | 5

Tested on: pale smartweed (Po)
Assay: as above
Format: in vivo
Set-up: scale not given here
Conditions: dose 1.6 g ai/10a, 14th day after treatment
Outline: as §4

Row | SMILES | Herbicidal effects Po
19 | C=CCn1c(=O)sc2cc(F)c(-c3ccc(C(F)(F)F)n(C)c3=O)cc21 [Compound 3-5] | 5

Tested on: slender amaranth (Am)
Assay: as above
Format: in vivo
Set-up: scale not given here
Conditions: dose 1.6 g ai/10a, 14th day after treatment
Outline: as §4

Row | SMILES | Herbicidal effects Am
20 | C=CCn1c(=O)sc2cc(F)c(-c3ccc(C(F)(F)F)n(C)c3=O)cc21 [Compound 3-5] | 5

Tested on: corn (Ze)
Assay: Test Example 11: crop plant selectivity by upland field foliage treatment (corn), phytotoxicity
Conditions: upland field foliage treatment, dose 1.6 g ai/10a, 14th day after treatment
Protocol: (§5) (Test on Crop Plant Selectivity by Upland Field Foliage Treatment)
(§6) In a plastic pot (surface area: 600 cm^2) filled with sand, corn (Ze), pale smartweed (Po), slender amaranth (Am), common lambsquarters (Ch) and China jute (Ab) were sown and cultured in a green house for 2 weeks. […] The plants were then cultured in a green house, and the evaluation of the herbicidal effects and phytotoxicity was conducted on the 14th day after the treatment in accordance with the standards as identified in Table 47.

Row | SMILES | Phytotoxicity Ze
21 | C=CCn1c(=O)sc2cc(F)c(-c3ccc(C(F)(F)F)n(C)c3=O)cc21 [Compound 3-5] | 2

Tested on: China jute (Ab)
Assay: Test Example 11: crop plant selectivity by upland field foliage treatment (corn), herbicidal effects
Format: in vivo
Set-up: scale not given here
Conditions: upland field foliage treatment (corn test), dose 1.6 g ai/10a, 14th day after treatment
Protocol: as §5, §6

Row | SMILES | Herbicidal effects Ab
22 | C=CCn1c(=O)sc2cc(F)c(-c3ccc(C(F)(F)F)n(C)c3=O)cc21 [Compound 3-5] | 5

Tested on: common lambsquarters (Ch)
Assay: as above
Format: in vivo
Set-up: scale not given here
Conditions: upland field foliage treatment (corn test), dose 1.6 g ai/10a, 14th day after treatment
Protocol: as §5, §6

Row | SMILES | Herbicidal effects Ch
23 | C=CCn1c(=O)sc2cc(F)c(-c3ccc(C(F)(F)F)n(C)c3=O)cc21 [Compound 3-5] | 5

Tested on: pale smartweed (Po)
Assay: as above
Format: in vivo
Set-up: scale not given here
Conditions: upland field foliage treatment (corn test), dose 1.6 g ai/10a, 14th day after treatment
Protocol: as §5, §6

Row | SMILES | Herbicidal effects Po
24 | C=CCn1c(=O)sc2cc(F)c(-c3ccc(C(F)(F)F)n(C)c3=O)cc21 [Compound 3-5] | 5

Tested on: slender amaranth (Am)
Assay: as above
Format: in vivo
Set-up: scale not given here
Conditions: upland field foliage treatment (corn test), dose 1.6 g ai/10a, 14th day after treatment
Protocol: as §5, §6

Row | SMILES | Herbicidal effects Am
25 | C=CCn1c(=O)sc2cc(F)c(-c3ccc(C(F)(F)F)n(C)c3=O)cc21 [Compound 3-5] | 5

— patent publication US6472348B1, “Pyridone derivatives and herbicides” (Kumiai Chemical Industry Co., Ltd., priority 1996, dated 2002)
